Key:
[1] = tested on: busulfan antibodies (antisera of example 7); assay: Indirect competitive microtiter plate immunoassay (ELISA), busulfan derivative 11-BSA sensitized plates; format: binding, mouse; details: antibodies to Busulfan-KLH (example 7); plate coating Busulfan-BSA conjugate example 6, derivative 11; ratio of IC50 busulfan to IC50 analyte
Procedure: (§1) Ten Female BALB/c mice were immunized i.p. with 100 μg/mouse of Busulfan-BTG immunogen prepared in example 3 or with Busulfan-KLH immunogen prepared in example 4, emulsified in Complete Freund's Adjuvant. Mice were boosted once four weeks after the initial injection with 100 μg/mouse of the same immunogens emulsified in Incomplete Freund's Adjuvant. Ten or 28 days after the boost test bleeds from each mouse were obtained by orbital bleed. The anti-serum from these test bleeds contained Busulfan antibodies evaluated in Examples 9 , 10a and 10b.
(§2) The ELISA method for measuring busulfan concentrations was performed in polystyrene microtiter plates (Nunc MaxiSorp C8 or F8 Immunomodules) optimized for protein binding and containing 96 wells per plate. Each well was coated with busulfan-BSA conjugate (prepared as in example 6) by adding 300 μL of busulfan-BSA conjugate at 2.5 μg/mL in 7.5 μg/mL BSA, 0.05M sodium bicarbonate, pH=9.6, and incubating for three hours at room temperature. The wells were washed with 0.05M sodium bicarbonate, pH 9.6 and then were blocked with 400 μL of 5% sucrose, 0.2% sodium caseinate solution for 30 minutes at room temperature. After removal of the post-coat solution the plates were dried at 37° C. overnight.
(§3) The ELISA method for screening busulfan antibodies (produced in example 7) was performed with the microtiter plates that were sensitized with busulfan-BSA as described in examples 8a and 8b. The antibody screening assay was performed by diluting the antisera containing busulfan antibodies (of example 7) to 1:100, 1:1,000, 1:10,000 and 1:100,000 in phosphate buffered saline containing 0.1% BSA and 0.01% thimerosal. To each well of busulfan-BSA sensitized wells (prepared in examples 8a and 8b) 100 μL of diluted antibody was added and incubated for 10 minutes at room temperature with shaking. During this incubation antibody binds to the busulfan-conjugate in the well. […] Following the incubation for color development, 50 μL of stop solution (1.5% sodium fluoride in di H2O) was added to each well to stop the color development and after 10 seconds of shaking the absorbance was determined at 650 nm (Molecular Devices Plate Reader). The amount of antibody in a well was proportional to the absorbance measured and was expressed as the dilution (titer) resulting in an absorbance of 1.5. Titers were determined by graphing Log antibody dilution of the antibody measured (x-axis) vs. absorbance 650 nm (y-axis) and extrapolating the titer at an absorbance of 1.5. The titer determined the concentration (dilution) of antibody used in the indirect competitive Microtiter plate assay described in examples 10a and 10b. […]

[2] = tested on: busulfan antibodies (antisera of example 7); assay: Indirect competitive microtiter plate immunoassay (ELISA), busulfan derivative 7-BSA sensitized plates; format: binding, mouse; details: antibodies to Busulfan-KLH (example 7); plate coating Busulfan-BSA conjugate example 5, derivative 7; ratio of IC50 busulfan to IC50 analyte
Procedure: as §1
as §2, with “5)” for “6)”, “10” for “2.5”, “in” for “in 7.5 μg/mL BSA,”
as §3, with “well. The wells of the plates were washed three times with 0.02 M TRIS, 0.9% NaCl, 0.5% Tween-80 and 0.001% Thimerosal, pH 7.8 to remove any unbound antibody.” for “well.”

SMILES	Cross-Reactivity of Competitive Immunoassay [1] [%]	Cross-Reactivity of Competitive Immunoassay [2] [%]
C1CCSC1 [Tetrahydrothiophene, tetrahydrothiophene]	<0.24	<0.4
O=S1(=O)CCC(O)C1 (centres unmarked) [Tetrahydrothiophene-3-ol-1,1-dioxide, tetrahydrothiophene-3-ol-1,1-dioxide]	<0.24	<0.4
O=S1(=O)CCCC1 [Tetramethylene sulfone, tetramethylene sulfone]	<0.24	<0.4
CS(=O)(=O)OCCCCOS(C)(=O)=O [Busulfan]	100	100
